# Laboratory results published in patent US9079859B2, “Synthetic lethal targeting of glucose transport” (AUCKLAND UNISERVICES LIMITED, priority 2011, dated 2015).
# Experiments:
# ACHN = test: RCC panel sensitivity (Table 2); format: cell-based; settings: VHL wild-type
# SN12C shVHL = test: RCC panel sensitivity (Table 2); format: cell-based; settings: VHL silenced
# SN12C = test: RCC panel sensitivity (Table 2); format: cell-based; settings: VHL wild-type
# 50 different kinases = test: In vitro kinase panel (Millipore Kinase Profiler); format: biochemical
# Description: (§1) Cell Culture and Reagents. All cells were grown in DMEM+10% FCS. ACHN and ACHN shVHL were a kind gift from George V. Thomas (UCLA). HIF overexpressing clones were described previously (Sutphin et al., Cancer Res, 67:5896-5905 (2007)). Transfection of RNA oligos were performed with DnarmaFECT Reagent 1 (Dharmcon), according to manufacturer's directions. ON-TARGETplus SMART pools against HIF-1 R/ARNT were purchased from Dharmacon. Inducible shRNAmir to GLUT1 was purchased from Open Biosystems. GLUT1 was detected with anti-GLUT1 antibody from NeoMarkers/LabVision/Fisher. For immunofluorescent studies, GLUT1, GLUT2, and GLUT3 antibodies were purchased from R&D. Pyruvate/lactate levels and hexokinase activity were both measured by fluorometric assay (BioVision and Sigma-Aldrich, respectively). ATP levels were measured by bioluminescence assay (ATP Determination Kit from Molecular Probes/Invitrogen). In vitro kinase activities were performed by Millipore Kinase Profiler.
# VHL-deficient cells = test: Extracellular acidification rate, VHL-deficient cells; format: cell-based; set-up: dose or concentration left out as unconfirmed; settings: VHL-deficient cells vs control-treated; 48 hours
# Description: (§2) HIF is important to adapting to low oxygen conditions through the transcription of many genes, including those involved in glucose metabolism. It was hypothesized that STF-31 might inhibit metabolic pathways, leading to necrotic cell death. To examine whether this compound alters glycolysis, intracellular lactate, which is rapidly converted from the glycolysis end product pyruvate, and extracellular acidification were measured. Baseline levels of glycolysis were lower in wild-type VHL cells compared to VHL-deficient cells (FIGS. 2, A and B), likely a result of the constitutive expression of HIF and subsequent overexpression of glucose transporters and glycolytic enzymes in the latter.
# RCC4 cells [1] = test: Lactate production, VHL-deficient cells; format: cell-based; set-up: dose or concentration left out as unconfirmed; settings: VHL-deficient cells vs control-treated; STF-31 as printed in FIG. 2 legend
# Description: as §2
# as §1, with “Transfection of RNA oligos were performed with DnarmaFECT Reagent 1 (Dharmcon), according to manufacturer's directions. ON-TARGETplus SMART pools against HIF-1 R/ARNT were purchased from Dharmacon. Inducible shRNAmir to GLUT1 was purchased from Open Biosystems.” left out, “In vitro kinase activities were performed by Millipore Kinase Profiler.” left out
# hexokinase = test: Hexokinase activity in whole-cell lysates, RCC4/VHL; format: cell-based
# Excerpt: We then examined whether this decrease in glycolysis in response to STF-31 was due to a decrease in glucose uptake or whether STF-31 inhibited a particular glycolytic enzyme. To test this, we measured glucose uptake using 2-deoxy-D-[^3H] glucose, a non-hydrolyzable, radioactive glucose analog. STF-31 impaired glucose uptake in RCC4 and 786-O cells but not in the matched isogenic cells expressing wild-type VHL (FIGS. 2B, 6A, and 6C). RCC4/VHL cells had lower baseline levels of glucose uptake compared to RCC4 cells and were unaffected by treatment with STF-31. […] Because the phosphorylation of glucose to glucose-6-phosphate is important for preventing glucose efflux from the cell, we asked whether STF-31 might function by inhibiting the phosphorylation of glucose by hexokinase. […]
# Cell Culture and Reagents. […] GLUT1 was detected with anti-GLUT1 antibody from NeoMarkers/LabVision/Fisher. For immunofluorescent studies, GLUT1, GLUT2, and GLUT3 antibodies were purchased from R&D. Pyruvate/lactate levels and hexokinase activity were both measured by fluorometric assay (BioVision and Sigma-Aldrich, respectively). ATP levels were measured by bioluminescence assay (ATP Determination Kit from Molecular Probes/Invitrogen). […]
# UMRC6/VHL = test: RCC panel sensitivity (Table 2); format: cell-based; settings: VHL wild-type
# LC3 = test: Autophagy markers (vacuoles, LC3 processing); format: cell-based; settings: RCC4 and RCC4/VHL; 1.25, 2.5 and 5 μM
# RCC4 and RCC4/VHL cells = test: Apoptosis (nuclear condensation, annexin V / propidium iodide); format: cell-based; settings: VHL-deficient and wild-type VHL RCCs, DAPI
# RCC4/VHL = test: RCC panel sensitivity (Table 2); format: cell-based; settings: VHL wild-type
# GLUT1 = GLUT1 protein levels; format: cell-based
# Excerpt: Moreover, the levels of soluble GLUT1 protein were also unaffected by STF-31 (FIG. 8D). […] Active analogs, which selectively kill VHL-deficient cells through glucose uptake, docked within the central channel of GLUT1 (FIG. 3F).
# [2] = test system: VHL-deficient and wild-type VHL cells; test: Oxygen consumption; format: cell-based
# Description: Oxygen Consumption. Following treatment with vehicle or drug, cells were trypsinized, suspended at 5 million cells per ml in DMEM+10% FCS, and oxygen consumption was measured in 0.5 ml volume using an Oxytherm electrode unit (Hansatech).
# RCC4 cells [3] = test: Clonogenic survival, RCC4; format: cell-based; settings: STF-31 5 μM, media replaced, grown for a total of 10 days (FIG. 1D)
# Description: Cell Viability Assays. For 2,3-bis[2-methoxy-4-nitro-5-sulfophenyl]-2H-tetrazolium-5-carboxanilide (XTT) assays, five thousand cells were plated in 96-well plates. The next day, vehicle (DMSO) or drug was added by serial dilution. Four days later, media were aspirated, XTT solution (0.3 mg/ml of XTT (Sigma), […] N-methyl dibenxopyrazine methyl sulfate (Sigma) in phenol red-free media) was added, and the plates were incubated at 37° C. for 1-2 hours. Metabolism of XTT was quantified by measuring the absorbance at 450 nm. IC50s were calculated using linear interpolation. For clonogenic survival assays, three hundred cells were plated per 60 mm tissue culture dish. […] Colonies were fixed and stained with crystal violet (0.1% crystal violet in 95% ethanol). All conditions were measured in triplicate and each experiment was done in duplicate or triplicate. To determine necrosis, cells were treated with drug for a given time point. Media and cells were collected, centrifugated, and resuspended in 0.4% trypan blue (Invitrogen). Live and dead cells were counted on a hematocytometer.
# 786/VHL = test: RCC panel sensitivity (Table 2); format: cell-based; settings: VHL wild-type
# cells with wild-type VHL = test: Glycolysis (lactate, extracellular acidification), wild-type VHL cells; format: cell-based; settings: lactate and extracellular acidification
# Description: as §2
# 786-0 = test: RCC panel sensitivity (Table 2); format: cell-based; settings: 786-0, VHL mutant
compound,measurement,setting,value
CC(C)(C)c1ccc(S(=O)(=O)NCc2ccc(C(=O)Nc3cccnc3)cc2)cc1 [STF-31],3-series sensitivity (sensitivity to STF-31),ACHN,No
same,3-series sensitivity (sensitivity to STF-31),SN12C shVHL,Yes
same,3-series sensitivity (sensitivity to STF-31),SN12C,Yes
same,kinase inhibition across 50 different kinases,50 different kinases,no significant decrease
same,inhibition of extracellular acidification,VHL-deficient cells,about 60%
same,inhibition of lactate production,RCC4 cells [1],about 60%
same,hexokinase activity of RCC4/VHL cells,hexokinase,unchanged
same,3-series sensitivity (sensitivity to STF-31),UMRC6/VHL,No
same,"morphologic or biochemical features of autophagy (vacuoles, LC3 processing)",LC3,did not induce
same,nuclear condensation,RCC4 and RCC4/VHL cells,no nuclear condensation
same,3-series sensitivity (sensitivity to STF-31),RCC4/VHL,No
same,levels of soluble GLUT1 protein,GLUT1; soluble and insoluble fractions,unaffected
same,GLUT1 protein levels,"GLUT1; time- or concentration-dependent (1.25-10 μM, 3 days)",did not affect
same,"oxygen consumption, treated versus not treated cells",[2],no difference
same,RCC4 cells killed following treatment,RCC4 cells [3],Approximately 80%
same,3-series sensitivity (sensitivity to STF-31),786/VHL,Yes
same,glycolysis in cells with wild-type VHL,cells with wild-type VHL,did not alter
same,3-series sensitivity (sensitivity to STF-31),786-0,Yes
